Measured values reported in patent US8937038B2, “Composition containing peptide ligand that bonds with CXCR2 for treating infective and inflammatory diseases” (priority 2010, dated 2015).

Key:
CLP mice = assay: Apoptosis of immune cells (TUNEL) in CLP mice; format: in vivo, mouse
Description: First, a tissue embedded in paraffin was deparaffinized using a typical histological protocol, and performed digoxigenin-dUTP nick end labeling (TUNEL) analysis. Sections were permeated into the Triton X-100 at 4° C. for 2 minutes, and the sections were flooded in terminal deoxynucleotidyl transferase (TdT) and a TUNEL reagent at 37° C. for 60 minutes. A percentage of apoptotic cells (TUNEL-positive cells) was determined by counting 500 splenocytes under an optical microscope. Also, the tissue embedded in paraffin was deparaffinized using a typical histological protocol, and immunohistochemical analysis was performed on the microtomed sections of caspase-3 (Wang J. et al. 2001 Proc. Natl. Acad. Sci. USA 98:4038-43).
The defunctionalization of the major internal organs such as lungs was associated with the mortality after sepsis. A morphological change was observed by performing hematoxylin and eosin staining. […] Liver tissues from the CLP mice were necrotized to a higher extent, but the necrosis of the liver tissues was decreased by administration of Ac-PGP. […] Most of the apoptosis in the thymus or spleen of a CLP mouse was caused in the cortex of the thymus or spleen in which immature cells were populated. When compared with those of the sham or Ac-PGP mice, an important morphological change in apoptotic cells of the CLP mice is that small compact pyknosis containing multiple nuclear fragments were present in apoptotic lymphocytes (FIG. 7). […] The apoptosis of immune cells was also accompanied with sepsis.
The apoptosis of immune cells is associated with the mortality on sepsis. Here, the CLP was proven to remarkably increase apoptosis of splenocytes (FIG. 22). […] Apoptosis of lymphocytes was induced by activation of some major caspases including caspase-3. Therefore, not only the effect of Ac-PGP on activation of caspase-3 but also the effect of CLP activation by caspase-3 were examined (FIG. 23).

mouse splenocytes = assay: Cytokine release from LPS-stimulated mouse splenocytes (ELISA); format: cell-based
Description: Mouse splenocytes were positioned on an RPMI 1640 medium including 5% FBS in a 96-well plate, and maintained at 37° C. in a 5% CO2 incubator. Thereafter, the splenocytes were stationarily incubated with LPS (100 ng/ml) for 24 hours in the presence or absence of Ac-PGP. After 30 minutes, LPS was added to the cells and collected a cell-free supernatant, and then the supernatant was centrifuged, and TNF-α, IL-6 and IFN-γ were measured using ELISA (BD Biosciences Pharmingen). In regards to the effect of IFN-γ on production of pro-inflammatory cytokines induced by LPS, 5×10^5 cells/ml of the mouse splenocytes were stimulated with 100 ng/ml of LPS in the presence or absence IFN-γ (R&D) (at various concentrations of 1, 10, 100 and 1,000 IU/ml). Amounts of TNF-α and IL-6 were measured 20 hours after stationary incubation using ELISA (BD Biosciences Pharmingen).
An effect of the Ac-PGP on a pro-inflammatory cytokine in a peritoneal fluid by CLP was determined from 4 to 72 hours after the CLP. The CLP induced a remarkable increase in levels of pro-inflammatory cytokines (TNF-α, IL-1β and IL-6) within 24 hours (FIGS. 14 to 16). Injection of the Ac-PGP in a sepsis model by the CLP induced a remarkable change in levels of the cytokines. […] To evaluate an effect of the Ac-PGP on production of the pro-inflammatory cytokines by the LPS, in vitro production of TNF-α and IL-6 by the mouse splenocytes was evaluated. Direct release of the TNF-α and IL-6 from the mouse splenocytes by the LPS was suppressed by in vitro treatment with the Ac-PGP (FIGS. 17 and 18).
Since it was confirmed that the administration of the Ac-PGP improved in vivo production of IFN-γ, a direct effect of the Ac-PGP on production of IFN-γ by splenocytes was examined. […] Also, an effect of IFN-γ on production of the pro-inflammatory cytokines was also examined.

human neutrophils = assay: Disinfection activity of human neutrophils against opsonized E. coli; format: cell-based; details: FIG. 27
Description: All kinds of protocols used in human beings were approved by the Institutional Review Board (IRB) at Dong-A University Hospital, and prior consents were obtained from all blood donors. Peripheral blood was collected from healthy donors, and human peripheral monocytes were separated using a Histopaque-1077 gradient. Neutrophils were separated through methods such as dextran precipitation of red blood cell, hypotonic lysis, and usage of lymphocyte isolation medium gradient, as known in the related art (Bae, Y. S. et al. Blood 97, 2854-2862(2001)). The separated human leukocytes were used immediately.
The disinfection activities of the neutrophils were measured according to a method disclosed by Yan et al. (Yan J J et al. 2004 Nat. Med. 10:161-167). The neutrophils were stationarily incubated at 37° C. for an hour on a 13 mm plastic cover slip in a 60 mm plastic culture dish. The non-attached cells were removed by PBS. The attached neutrophils were stationarily incubated for an hour with 10^6 opsonized E. coli cells. The non-phagocytized E. coli cells were washed, and the number of bacteria surviving in the neutrophils was determined before and after the E. coli cells were treated with various concentrations of Ac-PGP or vehicle for an hour. A percentage of the apoptosized bacteria was calculated as follows. 100×(1−CFU Number after stimulus with Ac-PGP/CFU Number before stimulus with Ac-PGP)
Since Ac-PGP strongly promoted the disinfection activity of the mouse neutrophils, a bacteriocidal effect of the Ac-PGP on human neutrophils was examined.

Substance: acetylated-Pro-Gly-Pro [Ac-PGP]
- apoptosis of the immune cells in the spleen (CLP mice; CLP mice, FIG. 8): remarkably suppressed
- apoptosis of the immune cells in the thymus (CLP mice; CLP mice, FIG. 9): remarkably suppressed
- apoptosis of splenocytes (CLP mice; CLP mice, FIG. 22): remarkably suppressed the apoptosis of splenocytes
- inhibitory effect of the apoptosis of splenocytes by Ac-PGP (CLP mice; IFN-γ-deficient CLP mice, FIG. 22): remarkably relieved
- release of TNF-α by LPS (mouse splenocytes; LPS 100 ng/ml, 24 hours, FIG. 17): suppressed
- release of IL-6 by LPS (mouse splenocytes; LPS 100 ng/ml, 24 hours, FIG. 18): suppressed
- production of IFN-γ by LPS (mouse splenocytes; LPS-stimulated splenocytes, FIG. 24): increased production of IFN-γ
- killing of opsonified E. coli (human neutrophils; 20 nM): almost completely killed opsonified E. coli
- disinfection activity (human neutrophils; 100 nM): remarkably improved the disinfection activity
- bacterial killing by the human neutrophils (human neutrophils; various concentrations): dose-dependent effect on bacterial killing
